{"source": "patent US20230414774A1", "about": "“ANTI-CLDN18.2 ANTIBODY, DRUG CONJUGATE, AND PREPARATION METHOD THEREFOR AND USE THEREOF” (CSPC MEGALITH BIOPHARMACEUTICAL CO., LTD., priority 2020, published 2023)", "molecules": {"B1": {"name": "SYJS001 monoclonal antibody (antibody, human IgG1, kappa, V domains shown)", "VH": "EVQLSESGGALVQPGESLRLSCAASGFTFSSYAMTWVRQAPGKGLEWVSSLSGSGRSTYYAASIKGRFTISRDNSKNTLYLQMSSLRAEDTAIYYCAKSLSYYHYYFDYWGQGTLVTVSS", "VL": "DIQLTQSPSFLSASVGDRVPITCRASQDISNYLAWYQQKPGKAPKLLIYSASTLQSGVPSRFSGSGSGTEFTLTISSLQPEDFASYHCQQVKTYPLTFGGGTKVEIKR"}}, "key": {"[1]": {"test_system": "human gastric cancer NUGC-4-18.2 xenografts", "assay": "In vivo efficacy, xenograft, cisplatin as reference", "set-up": "species or system nude mice", "settings": "i.v., 6 mg/kg qw×3, day 20", "procedure": "2) In this experiment, nude mice with human gastric cancer NUGC-4-18.2 xenografts were used. When the tumor volume reached about 120 mm^3 (day 6 after inoculation), 64 animals with bulky xenografts were selected and divided into eight groups (on day 0) with tumor volume balancing among groups. Eight animals in individual groups were intravenously administered 0.9% sodium chloride injection (0.9% INJ NS, vehicle control group), SYJS001-ADC at 1, 2 and 4 mg/kg (qw×3), SYJS001-ADC at 4 and 8 mg/kg (single dose), SYJS001-mAb at 4 mg/kg (qw×3) and Cisplatin at 6 mg/kg (qw×3, once a week for 3 weeks), respectively. Tumor diameters were measured twice a week. Mice were weighed, and data were recorded. Tumor growth was dynamically observed by measuring tumor diameters at different times after dosing. At the end of the experiment on day 20, the mice were asphyxiated with carbon dioxide, and the tumors were peeled and weighed."}, "[2]": {"test_system": "human pancreatic cancer Bxpc3-18.2 xenografts", "assay": "In vivo efficacy, xenograft, gemcitabine as reference", "set-up": "species or system nude mice", "settings": "i.v., 50 mg/kg biw×4, day 28", "procedure": "1) In this experiment, nude mice with human pancreatic cancer Bxpc3-18.2 xenografts were used. When the tumor volume reached about 100 mm^3 (day 39 after inoculation), 48 animals with bulky xenografts were selected and divided into six groups (on day 0) with tumor volume balancing among groups. Eight animals in individual groups were intravenously administered 0.9% sodium chloride injection (0.9% INJ NS, vehicle control group), SYJS001-ADC at 2, 4 and 8 mg/kg (single dose), SYJS001-mAb (SYJS001 nude antibody) at 8 mg/kg (single dose) and Gemcitabine (GEM) at 50 mg/kg (biw×4, twice a week for 4 weeks), respectively. Tumor diameters were measured twice a week. Mice were weighed, and data were recorded. Tumor growth was dynamically observed by measuring tumor diameters at different times after dosing. At the end of the experiment on day 28, the mice were asphyxiated with carbon dioxide, and the tumors were peeled and weighed."}, "[3]": {"biological_target": "human CLDN18.2 on cells (human) (UniProt P56856)", "assay": "flow cytometry on BxPC3-CLDN18.2 cells, ED50 comparison"}}, "data": [{"molecule": "N.N.[Cl][Pt][Cl]", "note": "[Cisplatin]", "values": [{"measurement": "tumor weight suppression rate", "setting": "[1]", "value": 66.5, "unit": "%"}]}, {"molecule": "Nc1ccn([C@@H]2O[C@H](CO)[C@@H](O)C2(F)F)c(=O)n1", "note": "[Gemcitabine]", "values": [{"measurement": "tumor weight suppression rate", "setting": "[2]", "value": 51.0, "unit": "%"}]}, {"molecule": "B1", "values": [{"measurement": "fold affinity against IMAB362", "setting": "[3]", "value": 2, "unit": "fold"}]}]}
